Measurements taken from PMC3626250, “Effects of Borneol on Pharmacokinetics and Tissue Distribution of Notoginsenoside R1 and Ginsenosides Rg1 and Re in Panax notoginseng in Rabbits” (Journal of Analytical Methods in Chemistry, 2013).
Read-outs that look alike come from different tables or passages of the source.

How the values were obtained:
[1] = Tissue distribution study in rabbits after oral Panax notoginseng extract with or without Borneol; format: in vivo, New Zealand rabbits; conditions: New Zealand, rabbit; for Kp at 1 h: oral, Borneol combined with Panax notoginseng; for concentration at 0.5 h / concentration at 1 h / concentration at 3 h: po; for concentration at 3 h: 3 mL·kg^−1, 3.0 h
Protocol: Frozen plasma and tissue samples were thawed in a water bath at 37°C and were then vortexed followed by centrifuging at 5000 r·min^−1 for 5 min. An aliquot of 1.0 mL of the supernatant from each sample was loaded onto C18 Bond Elute Solid phase extraction (SPE) cartridges (1000 mg, 1 cc reservoir, Varian, Harbor City, CA, USA) pretreated with 2.0 mL hexane, isopropanol, methanol, and water, sequentially. The SPE cartridges were then washed with 1.0 mL water, 20% methanol/water solution, 40% methanol/water solution, and 60% methanol/water solution, sequentially. Finally, analytes were eluted twice with 1.0 mL of 70% methanol/water solution. The eluant was evaporated to dryness under nitrogen. The residues were then reconstituted in 1.0 mL mobile phase. An aliquot of 10 μL was injected into the LC-MS system.
One group of rabbits (n = 18) was orally administered a dose of 3.0 mL·kg^−1 Panax notoginseng extract, while another group of rabbits (n = 18) was orally given 3.0 mL·kg^−1 Panax notoginseng extract combined with Borneol. At 0.5, 1, and 3 h after administration, blood samples were collected from the central ear artery of six rabbits from each group, and the heart, liver, lung, kidney, and brain were immediately removed after animals were sacrificed by decapitation. An accurately weighed amount of tissue (1 g) was collected to be rinsed, dried, minced, and homogenized (400 r·min^−1) in normal saline (1.5 mL). All of the samples were stored at −70°C and were processed prior to analysis with the proposed method as described in Section 2.6.

[2] = system: vinblastine-selected Caco-2 cells; assay: Transport studies across Caco-2 monolayers (P app, efflux ratio); format: in vitro ADME
Protocol: Medium was replaced every 2-3 days. […] The vinblastine-selected Caco-2 cells were cultivated in the presence of 10 nM vinblastine to induce P-glycoprotein (P-gp) expression. […] Prior to the transport study, cytotoxicity of NGR1, GRg1, GRe, and Borneol toward Caco-2 cells was determined using MTT assays.
In transport studies, vinblastine-selected Caco-2 cells were seeded on polycarbonate filter of transwells for 18–21 days before starting transport study, and the monolayers with the transepithelial electrical resistance (TEER) values greater than 300 Ωcm^2 were used. Caco-2 monolayers were rinsed twice with Hanks' balanced salt solution (HBSS) and preincubated in HBSS at 37°C for 30 min before starting experiments. To start the experiments, 500 μM of NGR1, GRg1, and GRe in final concentrations were added to the donor side with or without 200 μM Borneol and then incubated at 37°C. […] After each sampling, 0.1 mL of HBSS was added to the receiver chamber to maintain a constant volume. All the experiments were performed five times in duplicate. The collected samples were stored at −20°C until HPLC analysis. During the above transport studies, the TEER values were also monitored before and at the end of each experiment. Apparent permeability coefficients (P app) were then calculated according to the following equation: (1) Papp=(dC/dt×V)/(A×C0), where dC/dt is the rate of the test compound appearing in the receiver chamber, V is the volume of the solution in the receiver chamber, A is the cell monolayer surface area, and C 0 is the initial concentration of the test compound added in the donor chamber.
The efflux ratio (Er) was calculated using the following equation: (2) Er=Papp(basolateral-apical)/Papp(apical-basolateral).

Caco-2 cells = assay: MTT cytotoxicity assay toward Caco-2 cells; format: cell-based; conditions: chosen for transport study

Kp at 1 h ([1]; brain, peak levels at 1.0 h, read-out: level in brain, fold higher than the plasma concentrations): 11.8
concentration at 0.5 h ([1]; brain, 3 mL·kg^−1, 0.5 h, oral Panax notoginseng with Borneol, read-out: Concentration in brain): 20600 ± 1360 ng/g
concentration at 0.5 h ([1]; brain, 3 mL·kg^−1, 0.5 h, oral Panax notoginseng, read-out: Concentration in brain): 750 ± 110 ng/g
concentration at 1 h ([1]; brain, 3 mL·kg^−1, 1.0 h, oral Panax notoginseng, read-out: Concentration in brain): 910 ± 890 ng/g
concentration at 3 h ([1]; brain, oral Panax notoginseng with Borneol, read-out: Concentration in brain): 17900 ± 2600 ng/g
concentration at 3 h ([1]; brain, oral Panax notoginseng, read-out: Concentration in brain): 570 ± 200 ng/g
concentration at 1 h ([1]; brain, 1.0 h, oral Panax notoginseng with Borneol, read-out: Concentration in brain): 25700 ± 2690 ng/g
Kp at 1 h ([1]; heart, peak levels at 1.0 h, read-out: level in heart, fold higher than the plasma concentrations): 12.4
concentration at 0.5 h ([1]; heart, 3 mL·kg^−1, 0.5 h, oral Panax notoginseng with Borneol, read-out: Concentration in heart): 22600 ± 360 ng/g
concentration at 0.5 h ([1]; heart, 3 mL·kg^−1, 0.5 h, oral Panax notoginseng, read-out: Concentration in heart): 2210 ± 760 ng/g
concentration at 1 h ([1]; heart, 3 mL·kg^−1, 1.0 h, oral Panax notoginseng, read-out: Concentration in heart): 2940 ± 240 ng/g
concentration at 3 h ([1]; heart, oral Panax notoginseng with Borneol, read-out: Concentration in heart): 19100 ± 1160 ng/g
concentration at 3 h ([1]; heart, oral Panax notoginseng, read-out: Concentration in heart): 1530 ± 450 ng/g
concentration at 1 h ([1]; heart, 1.0 h, oral Panax notoginseng with Borneol, read-out: Concentration in heart): 27000 ± 310 ng/g
Kp at 1 h ([1]; kidney, at 1.0 h, read-out: level in kidney, fold higher than the plasma concentrations): 7.77
concentration at 0.5 h ([1]; kidney, 3 mL·kg^−1, 0.5 h, oral Panax notoginseng with Borneol, read-out: Concentration in kidney): 27540 ± 170 ng/g
concentration at 0.5 h ([1]; kidney, 3 mL·kg^−1, 0.5 h, oral Panax notoginseng, read-out: Concentration in kidney): 4050 ± 260 ng/g
concentration at 1 h ([1]; kidney, 3 mL·kg^−1, 1.0 h, oral Panax notoginseng, read-out: Concentration in kidney): 3670 ± 380 ng/g
concentration at 3 h ([1]; kidney, oral Panax notoginseng with Borneol, read-out: Concentration in kidney): 10200 ± 2770 ng/g
concentration at 3 h ([1]; kidney, oral Panax notoginseng, read-out: Concentration in kidney): 3030 ± 230 ng/g
concentration at 1 h ([1]; kidney, 1.0 h, oral Panax notoginseng with Borneol, read-out: Concentration in kidney): 16900 ± 810 ng/g
Kp at 1 h ([1]; liver, peak levels at 1.0 h, read-out: level in liver, fold higher than the plasma concentrations): 27.1
concentration at 0.5 h ([1]; liver, 3 mL·kg^−1, 0.5 h, oral Panax notoginseng with Borneol, read-out: Concentration in liver): 50100 ± 1950 ng/g
concentration at 0.5 h ([1]; liver, 3 mL·kg^−1, 0.5 h, oral Panax notoginseng, read-out: Concentration in liver): 8480 ± 530 ng/g
concentration at 1 h ([1]; liver, 3 mL·kg^−1, 1.0 h, oral Panax notoginseng, read-out: Concentration in liver): 8850 ± 510 ng/g
concentration at 3 h ([1]; liver, oral Panax notoginseng with Borneol, read-out: Concentration in liver): 37800 ± 3430 ng/g
concentration at 3 h ([1]; liver, oral Panax notoginseng, read-out: Concentration in liver): 6180 ± 590 ng/g
concentration at 1 h ([1]; liver, 1.0 h, oral Panax notoginseng with Borneol, read-out: Concentration in liver): 59000 ± 3740 ng/g
Kp at 1 h ([1]; lung, peak levels at 1.0 h, read-out: level in lung, fold higher than the plasma concentrations): 8.17
concentration at 0.5 h ([1]; lung, 3 mL·kg^−1, 0.5 h, oral Panax notoginseng with Borneol, read-out: Concentration in lung): 15100 ± 3240 ng/g
concentration at 0.5 h ([1]; lung, 3 mL·kg^−1, 0.5 h, oral Panax notoginseng, read-out: Concentration in lung): 14300 ± 430 ng/g
concentration at 1 h ([1]; lung, 3 mL·kg^−1, 1.0 h, oral Panax notoginseng, read-out: Concentration in lung): 15300 ± 640 ng/g
concentration at 3 h ([1]; lung, oral Panax notoginseng with Borneol, read-out: Concentration in lung): 12300 ± 1460 ng/g
concentration at 3 h ([1]; lung, oral Panax notoginseng, read-out: Concentration in lung): 11900 ± 710 ng/g
concentration at 1 h ([1]; lung, 1.0 h, oral Panax notoginseng with Borneol, read-out: Concentration in lung): 17800 ± 1250 ng/g
concentration at 0.5 h ([1]; plasma, 3 mL·kg^−1, 0.5 h, oral Panax notoginseng, read-out: Concentration in plasma): 1970 ± 160 ng/mL
concentration at 1 h ([1]; plasma, 3 mL·kg^−1, 1.0 h, oral Panax notoginseng, read-out: Concentration in plasma): 1990 ± 60 ng/mL
concentration at 3 h ([1]; plasma, oral Panax notoginseng with Borneol, read-out: Concentration in plasma): 920 ± 10 ng/mL
concentration at 3 h ([1]; plasma, oral Panax notoginseng, read-out: Concentration in plasma): 980 ± 10 ng/mL
concentration at 0.5 h ([1]; plasma, 0.5 h, oral Panax notoginseng with Borneol, read-out: Concentration in plasma): 2870 ± 60 ng/mL
concentration at 1 h ([1]; plasma, 1.0 h, oral Panax notoginseng with Borneol, read-out: Concentration in plasma): 2180 ± 90 ng/mL
increase of P app (apical-to-basolateral) by Borneol ([2]; 200 μM Borneol, Caco-2): 2.6 fold
increase of P app (basolateral-to-apical) by Borneol ([2]; 200 μM Borneol, Caco-2): 2.6 fold
P app values ([2]; Caco-2 monolayers, without Borneol): less than 10^−6 cm/s
substrate of P-gp ([2]; concluded from efflux ratio in vinblastine-selected Caco-2 cells): seemed not to be substrates of P-gp
Compound: CC(C)=CCC[C@](C)(O[C@@H]1O[C@H](CO)[C@@H](O)[C@H](O)[C@H]1O)[C@H]1CC[C@]2(C)[C@@H]1[C@H](O)C[C@@H]1[C@@]3(C)CC[C@H](O)C(C)(C)[C@@H]3[C@@H](O[C@@H]3O[C@H](CO)[C@@H](O)[C@H](O)[C@H]3O)C[C@]12C [GRg1, ginsenoside Rg1]
Noncytotoxic concentration (Caco-2 cells): 500 µM
